# In publication PMC5854716, “Synthesis, molecular docking, ctDNA interaction, DFT calculation and evaluation of antiproliferative and anti-Toxoplasma gondii activities of 2,4-diaminotriazine-thiazole derivatives” (Medicinal Chemistry Research, 2018):
# Tested on: biphenotypic B myelomonocytic leukemia MV4-11 cells
# Experiment: In vitro antiproliferative assay (MTT), MV4-11
# Format: cell-based, human
# Conditions: mean ± SD; for IC50: Homo sapiens, MV4-11, 72 h exposure; for IC50 MV4-11: 72 h exposure
# Experimental: Biphenotypic B myelomonocytic leukemia MV4-11, human lung carcinoma A549, human breast carcinoma MCF-7, and normal mouse fibroblast BALB/3T3 cells were obtained from American Type Culture Collection (Rockville, Maryland, USA). All the cell lines are being maintained at the Institute of Immunology and Experimental Therapy, Wroclaw, Poland. MV4-11 cells were cultured in RPMI 1640 medium (Gibco, UK) with 2 mM L-glutamine adjusted to contain 1.0 mM sodium pyruvate, and 10% fetal bovine serum (FBS) (all from Sigma-Aldrich, Germany). A549 cells were cultured in RPMI 1640+ Opti-MEM (1:1) (both from Gibco, UK), MCF-7 cells in Eagle medium (IIET, Wroclaw, Poland), BALB/3T3 in Dulbecco medium (IIET, Poland) supplemented with 2 mM L-glutamine and 1.0 mM sodium pyruvate, 10% fetal bovine serum (all from Sigma-Aldrich, Germany). The MCF-7 cell culture was supplemented with 0.8 mg/l of insulin (Sigma-Aldrich, Germany). All culture media were supplemented with 100 units/ml penicillin, and 100 µg/ml streptomycin (both from Polfa Tarchomin S.A., Poland). All cell lines were grown at 37 °C with 5% CO2 humidified atmosphere (Łączkowski et al. [2014], [2016a]).
# Prior to usage, the compounds were dissolved in DMSO and culture medium (1: 9) to the concentration of 1 mg/ml, and subsequently diluted in culture medium to reach the required concentrations (0.1, 1, 10, and 100 µg/ml) (Łączkowski et al. [2014], [2016a]).
# Twenty-four hours prior to the addition of the tested compounds, the cells counted using Burker hemocytometer were plated in 96-well plates (Sarstedt, Germany) at a density of 1 × 10^4 cells per well. The assay was performed after 72 h of exposure to varying concentrations of the tested agents. The in vitro cytotoxic effect of all agents was examined using the SRB assay for adherent cells (A549, MCF-7, and BALB/3T3) or MTT assay for leukemia cells (MV4-11) as described previously. The results were calculated as an inhibitory concentration 50 (IC50)—the concentration of tested agent which inhibits proliferation of 50% of the cancer cell population. Each compound in each concentration was tested in triplicate in a single experiment, which was repeated 3–7 times (Rubinstein et al. [1990]; Bramson et al. [1995]).
# Twenty microliter of MTT solution (MTT: 3-(4,5-dimethylthiazol-2-yl)-2,5-diphenyltetrazolium bromide, stock solution: 5 mg/ml) was added to each well and incubated for 4 h. After the incubation time was complete, 80 µl of the lysis mixture was added to each well (lysis mixture: 225 ml dimethylformamide, 67.5 g sodium dodecyl sulfate and 275 ml of distilled water). The optical densities of the samples were read after 24 h on a Synergy H4 (BioTek Instruments USA) photometer microtiter plate reader at 570 nm (Sidoryk et al. [2012]). All of chemicals were obtained from Sigma-Aldrich, Germany.
IC50,IC50 MV4-11,Compound
3.21 ± 0.454 µg/mL,–,"C/C(=N\Nc1nc(-c2ccc(F)cc2)cs1)c1ccc(Nc2nc(N)nc(N)n2)cc1 [Compound 4a, (E)-N^2-(4-(1-(2-(4-(4-fluorophenyl)-1,3-thiazol-2-yl)hydrazinylidene)ethyl)phenyl)-1,3,5-triazine-2,4,6-triamine]"
1.89 ± 0.45 µg/mL,–,"C/C(=N\Nc1nc(-c2ccc(Cl)cc2)cs1)c1ccc(Nc2nc(N)nc(N)n2)cc1 [Compound 4b, (E)-N^2-(4-(1-(2-(4-(4-chlorophenyl)-1,3-thiazol-2-yl)hydrazinylidene)ethyl)phenyl)-1,3,5-triazine-2,4,6-triamine]"
3.09 ± 0.726 µg/mL,–,"C/C(=N\Nc1nc(-c2ccc(C)cc2)cs1)c1ccc(Nc2nc(N)nc(N)n2)cc1 [Compound 4c, (E)-N^2-(4-(1-(2-(4-(4-tolyl)-1,3-thiazol-2-yl)hydrazinylidene)ethyl)phenyl)-1,3,5-triazine-2,4,6-triamine]"
2.14 ± 0.464 µg/mL,–,"C/C(=N\Nc1nc(-c2ccc(Br)cc2)cs1)c1ccc(Nc2nc(N)nc(N)n2)cc1 [Compound 4d, (E)-N^2-(4-(1-(2-(4-(4-bromophenyl)-1,3-thiazol-2-yl)hydrazinylidene)ethyl)phenyl)-1,3,5-triazine-2,4,6-triamine]"
1.13 ± 0.25 µg/mL,–,"C/C(=N\Nc1nc(-c2ccc(I)cc2)cs1)c1ccc(Nc2nc(N)nc(N)n2)cc1 [Compound 4e, (E)-N^2-(4-(1-(2-(4-(4-iodophenyl)-1,3-thiazol-2-yl)hydrazinylidene)ethyl)phenyl)-1,3,5-triazine-2,4,6-triamine]"
–,3.08 ± 0.851 µg/mL,"C/C(=N\Nc1nc(-c2cc3ccccc3oc2=O)cs1)c1ccc(Nc2nc(N)nc(N)n2)cc1 [Compound 4f, (E)-3-(2-(2-(1-(4-(4,6-diamino-1,3,5-triazin-2-yloamino)phenyl)ethylidene)hydrazinyl)thiazol-4-yl)-2H-chromen-2-on]"
–,2.76 ± 0.521 µg/mL,"CC(=O)Nc1ccc(-c2csc(N/N=C(\C)c3ccc(Nc4nc(N)nc(N)n4)cc3)n2)cc1 [Compound 4g, (E)-N^2-(4-(2-(2-(1-(4-(4,6-diamino-1,3,5-triazin-2-yloamino)phenyl)ethylidene)hydraziny)thiazol-4-yl)phenyl)-acetamide]"
3.01 ± 0.476 µg/mL,–,"C/C(=N\Nc1nc(-c2ccc([N+](=O)[O-])cc2)cs1)c1ccc(Nc2nc(N)nc(N)n2)cc1 [Compound 4h, (E)-N^2-(4-(1-(2-(4-(4-nitrophenyl)-1,3-thiazol-2-yl)hydrazinylidene)ethyl)phenyl)-1,3,5-triazine-2,4,6-triamine]"
1.37 ± 0.186 µg/mL,–,"C/C(=N\Nc1nc(-c2ccc(Cl)c(Cl)c2)cs1)c1ccc(Nc2nc(N)nc(N)n2)cc1 [Compound 4i, (E)-N^2-(4-(1-(2-(4-(3,4-dichlorophenyl)-1,3-thiazol-2-yl)hydrazinylidene)ethyl)phenyl)-1,3,5-triazine-2,4,6-triamine]"
–,1.73 ± 0.091 µg/mL,"C/C(=N\Nc1nc(-c2ccc(NS(C)(=O)=O)cc2)cs1)c1ccc(Nc2nc(N)nc(N)n2)cc1 [Compound 4j, (E)-N-(4-(2-(2-(1-(4-(4,6-diamino-1,3,5-triazin-2-yloamino)phenyl)ethylidene)hydrazinyl)thiazol-4-yl)phenyl)-methanesulfonamide]"
2.3 ± 0.97 µg/mL,–,"C/C(=N\Nc1nc(-c2ccccc2)cs1)c1ccc(Nc2nc(N)nc(N)n2)cc1 [Compound 4k, (E)-N^2-(4-(1-(2-(4-phenyl-1,3-thiazol-2-yl)hydrazinylidene)ethyl)phenyl)-1,3,5-triazine-2,4,6-triamine]"
